Source: patent US20260285850A1, “SUBSTITUTED OXAZOLIDINONES AND IMIDAZOLINONES AS HERBICIDES” (FMC CORPORATION, priority 2023, published 2026)

Tests used:
Format in all cases: in vivo
kochia (Bassia scoparia) [1] = experiment: Test A preemergence soil spray, visual injury rating 0-100; settings: 10 days
Method in brief: (§1)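 Plants were grown in a loam soil-sand blend and treated with test chemical in a non-phytotoxic solvent mixture containing surfactant, either sprayed on soil preemergence or applied postemergence to 2-10 cm plants. After 10 days in a greenhouse, injury was scored visually against untreated controls, 0 meaning no effect and 100 complete control.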

[2] = system: palmer (palmer amaranth, palmer pigweed, Amaranthus palmeri); experiment: as above; settings: 10 days
Method in brief: as §1

[3] = system: oat, wild (wild oat, Avena fatua); experiment: as above; settings: 10 days
Method in brief: as §1

[4] = system: ryegrass, Italian (italian ryegrass, Lolium multiflorum); experiment: as above; settings: 10 days
Method in brief: as §1

[5] = system: ragweed (common ragweed, Ambrosia artemisiifolia); experiment: as above; settings: 10 days
Method in brief: as §1

corn (Zea mays) [6] = experiment: as above; settings: 10 days
Method in brief: as §1

[7] = system: green foxtail (Setaria viridis); experiment: as above; settings: 10 days
Method in brief: as §1

soybean (Glycine max) [8] = experiment: as above; settings: 10 days
Method in brief: as §1

[9] = system: barnyardgrass (Echinochloa crus-galli); experiment: as above; settings: 10 days
Method in brief: as §1

[10] = system: wheat (Triticum aestivum); experiment: as above; settings: 10 days
Method in brief: as §1

[11] = system: blackgrass (Alopecurus myosuroides); experiment: as above; settings: 10 days
Method in brief: as §1

[12] = system: horseweed (Erigeron canadensis); experiment: Test A postemergence application, visual injury rating 0-100
Method in brief: as §1

kochia (Bassia scoparia) [13] = experiment: as above
Method in brief: as §1

[14] = system: palmer (palmer amaranth, palmer pigweed, Amaranthus palmeri); experiment: as above
Method in brief: as §1

[15] = system: galium (catchweed bedstraw, Galium aparine); experiment: as above
Method in brief: as §1

[16] = system: oat, wild (wild oat, Avena fatua); experiment: as above
Method in brief: as §1

[17] = system: ryegrass, Italian (italian ryegrass, Lolium multiflorum); experiment: as above
Method in brief: as §1

[18] = system: ragweed (common ragweed, Ambrosia artemisiifolia); experiment: as above
Method in brief: as §1

corn (Zea mays) [19] = experiment: as above
Method in brief: as §1

[20] = system: green foxtail (Setaria viridis); experiment: as above
Method in brief: as §1

soybean (Glycine max) [21] = experiment: as above
Method in brief: as §1

[22] = system: barnyardgrass (Echinochloa crus-galli); experiment: as above
Method in brief: as §1

[23] = system: wheat (Triticum aestivum); experiment: as above
Method in brief: as §1

[24] = system: blackgrass (Alopecurus myosuroides); experiment: as above
Method in brief: as §1

[25] = system: barnyardgrass (Echinochloa crusgalli); experiment: Test B flooded paddy test, visual plant response rating 0-100; settings: 250 g ai/ha, Flood, applied to paddy water, evaluated after 13 days
Method in brief: (§2)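 Greenhouse, 13 d. Seedlings at 2-leaf stage, pots flooded to 3 cm, compound delivered into floodwater, water level held constant. Evaluated visually relative to controls.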

rice (Oryza sativa) = experiment: as above; settings: 250 g ai/ha, Flood, applied to paddy water, evaluated after 13 days
Method in brief: as §2

[26] = system: sedge, umbrella (small-flower umbrella sedge, Cyperus difformis); experiment: as above; settings: 250 g ai/ha, Flood, applied to paddy water, evaluated after 13 days
Method in brief: as §2

[27] = system: ducksalad (Heteranthera limosa); experiment: as above; settings: 250 g ai/ha, Flood, applied to paddy water, evaluated after 13 days
Method in brief: as §2

[28] = 62 g ai/ha, 0 = no effect, 100 = complete control
[29] = 62 g ai/ha, postemergence, 10 days, 0 = no effect, 100 = complete control
[30] = Postemergence, 16 g ai/ha, greenhouse 10 days, 0 no effect, 100 complete control

`C=CC1(C(=O)NC2C=CC(C(=O)OC)C2)CN(c2cc(F)cc(F)c2)C(=O)O1` (single isomer, unassigned) [Compound 168] was tested, and the “Kochia plant response rating” value (kochia (Bassia scoparia) [1]; 16 g ai/ha, 0 to 100 scale) was 0, the “Kochia plant response rating (0-100)” value (kochia (Bassia scoparia) [1]; [28]) was 0 and the “Pigweed, Palmer plant response rating” value ([2]; 16 g ai/ha, 0 to 100 scale) was 0. For the same compound, the “Pigweed, Palmer plant response rating (0-100)” value [2, 28] was 0, the “Oat, Wild plant response rating” value ([3]; 16 g ai/ha, 0 to 100 scale) was 0 and the “Oat, Wild plant response rating (0-100)” value [3, 28] was 0. The “Ryegrass, Italian plant response rating” value ([4]; 16 g ai/ha, 0 to 100 scale) was 0, the “Ryegrass, Italian plant response rating (0-100)” value [4, 28] was 0 and the “Ragweed plant response rating” value ([5]; 16 g ai/ha, 0 to 100 scale) was 0. For the same compound, the “Ragweed plant response rating (0-100)” value [5, 28] was 0, the “Corn plant response rating” value (corn (Zea mays) [6]; 16 g ai/ha, 0 to 100 scale) was 0 and the “Corn plant response rating (0-100)” value (corn (Zea mays) [6]; [28]) was 0. The “Foxtail, Green plant response rating” value ([7]; 16 g ai/ha, 0 to 100 scale) was 0, the “Foxtail, Green plant response rating (0-100)” value [7, 28] was 0 and the “Soybean plant response rating” value (soybean (Glycine max) [8]; 16 g ai/ha, 0 to 100 scale) was 0. For the same compound, the “Soybean plant response rating (0-100)” value (soybean (Glycine max) [8]; [28]) was 0, the “Barnyardgrass plant response rating” value ([9]; 16 g ai/ha, 0 to 100 scale) was 0 and the “Barnyardgrass plant response rating (0-100)” value [9, 28] was 0. For the same compound, the “Wheat plant response rating” value ([10]; 16 g ai/ha, 0 to 100 scale) was 0, the “Wheat plant response rating (0-100)” value [10, 28] was 0 and the “Blackgrass plant response rating” value ([11]; 16 g ai/ha, 0 to 100 scale) was 0. For the same compound, the “Blackgrass plant response rating (0-100)” value [11, 28] was 0, the “Horseweed plant response rating (0-100)” value [12, 29] was 0 and the “Horseweed plant response rating (0 to 100 scale)” value [12, 30] was 0. The “Kochia plant response rating (0-100)” value (kochia (Bassia scoparia) [13]; [29]) was 0, the “Kochia plant response rating (0 to 100 scale)” value (kochia (Bassia scoparia) [13]; [30]) was 0 and the “Pigweed, Palmer plant response rating (0-100)” value [14, 29] was 0. The “Pigweed, Palmer plant response rating (0 to 100 scale)” value [14, 30] was 0, the “Galium plant response rating (0-100)” value [15, 29] was 0 and the “Galium plant response rating (0 to 100 scale)” value [15, 30] was 0. The “Oat, Wild plant response rating (0-100)” value [16, 29] was 0, the “Oat, Wild plant response rating (0 to 100 scale)” value [16, 30] was 0 and the “Ryegrass, Italian plant response rating (0-100)” value [17, 29] was 0. The “Ryegrass, Italian plant response rating (0 to 100 scale)” value [17, 30] was 0, the “Ragweed plant response rating (0-100)” value [18, 29] was 0 and the “Ragweed plant response rating (0 to 100 scale)” value [18, 30] was 0. The “Corn plant response rating (0-100)” value (corn (Zea mays) [19]; [29]) was 10, the “Corn plant response rating (0 to 100 scale)” value (corn (Zea mays) [19]; [30]) was 0 and the “Foxtail, Green plant response rating (0-100)” value [20, 29] was 0. The “Foxtail, Green plant response rating (0 to 100 scale)” value [20, 30] was 0, the “Soybean plant response rating (0-100)” value (soybean (Glycine max) [21]; [29]) was 0 and the “Soybean plant response rating (0 to 100 scale)” value (soybean (Glycine max) [21]; [30]) was 0. The “Barnyardgrass plant response rating (0-100)” value [22, 29] was 20, the “Barnyardgrass plant response rating (0 to 100 scale)” value [22, 30] was 10 and the “Wheat plant response rating (0-100)” value [23, 29] was 0. The “Wheat plant response rating (0 to 100 scale)” value [23, 30] was 0, the “Blackgrass plant response rating (0-100)” value [24, 29] was 0 and the “Blackgrass plant response rating (0 to 100 scale)” value [24, 30] was 0. For the same compound, the “Plant response rating, Barnyardgrass (0 to 100 scale, 0 is no effect and 100 is complete control)” value [25] was 0, the “Plant response rating, Rice (0 to 100 scale, 0 is no effect and 100 is complete control)” value (rice (Oryza sativa)) was 0 and the “Plant response rating, Sedge, Umbrella (0 to 100 scale, 0 is no effect and 100 is complete control)” value [26] was 0. For the same compound, the “Plant response rating, Ducksalad (0 to 100 scale, 0 is no effect and 100 is complete control)” value [27] was 0.
